One experiment concerns the target T1, p38alpha (Homo sapiens, UniProt Q16539).
T1 construct: purchased Invitrogen PV3304
As to the kind of experiment: P38Alpha enzyme inhibition assay (Alphascreen kinase activity assay). The experiment is classed as biochemical. Particulars: 100 pM p38alpha, 250 μM ATP, 2 hours pre-incubation at 25° C., read-out: p38α inhibition (IC50 values). In outline:
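AlphaScreen read-out: after an EDTA stop, an anti-phospho-ATF2 antibody with Protein A acceptor and donor beads measured substrate phosphorylation. Compounds sat 2 h at 25°C with 100 pM p38α and 0.3 µg/ml ATF-2 fusion protein (pH 7.5, 1% DMSO) before 250 µM ATP was added for 1 h. IC50 from dose-response.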
In general terms: In Alpha technology, singlet oxygen from a donor bead excites a nearby acceptor bead.

For experiment [1], the system named is BAL cell influx induced by TS. As to the kind of experiment: Pre-clinical mouse model of COPD: tobacco smoke induced pulmonary inflammation. Particulars: mice, 3, 30 or 100 μg/kg, intranasal route, 4 daily TS exposures, BAL 24 h after final exposure (FIG. 1). The experiment is classed as in vivo. An excerpt:
Pre-Clinical Mouse Model of COPD Tobacco Smoke Induced Pulmonary Inflammation.
This timepoint was used in the studies reported here.
Protocols for the exposure of mice to TS, obtaining bronchoalveolar lavage fluid (BALF) and preparation of cytospin slides for differential cell counts are as outlined below.
Daily Exposure of Mice to TS for 4 Consecutive Days.
In this exposure protocol, mice were exposed in groups of 5 in individual clear polycarbonate chambers (27 cm×16 cm×12 cm). The TS from the cigarettes was allowed to enter the exposure chambers at a flow rate of 100 ml/min. In order to minimise any potential problems caused by repeated exposure to a high level of TS, the exposure of the mice to TS was increased gradually over the exposure period to a maximum of 6 cigarettes. […]
Lavage fluid was separated from cells by centrifugation and the supernatant decanted and frozen for subsequent analyses. The cell pellet was re-suspended in a known volume of PBS and total cell numbers calculated by counting a stained (Turks stain) aliquot under a microscope using a haemocytometer. […]
The residual cell pellet was diluted to approximately 10^5 cells per ml. […] Approximately four hundred cells were counted by an unbiased operator using light microscopy. […]
All results are presented as individual data points for each animal and the mean value was calculated for each group. […]

Experiment [2] relates to LPS-stimulated TNFα release from PBMCs. As to the kind of experiment: LPS-stimulated PBMC TNFα release assay. The experiment is classed as cell-based. Particulars: inhibition of TNFα release, human PBMCs, LPS 10 ng/ml, 18 h, ELISA, read-out: p38α inhibition (IC50 values). In outline: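 TNFα in supernatants measured by ELISA after 18 h LPS (10 ng/ml) challenge of human PBMCs given 1 h compound pretreatment at 37 °C in medium with 1% FBS. Percent inhibition versus control release fitted to dose-response curves for IC50; at least three independent runs.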
Background: ELISA stands for enzyme-linked immunosorbent assay.

Structures can show the parent of a compound that is named as a salt.

T1 sequence (Q16539 whole entry): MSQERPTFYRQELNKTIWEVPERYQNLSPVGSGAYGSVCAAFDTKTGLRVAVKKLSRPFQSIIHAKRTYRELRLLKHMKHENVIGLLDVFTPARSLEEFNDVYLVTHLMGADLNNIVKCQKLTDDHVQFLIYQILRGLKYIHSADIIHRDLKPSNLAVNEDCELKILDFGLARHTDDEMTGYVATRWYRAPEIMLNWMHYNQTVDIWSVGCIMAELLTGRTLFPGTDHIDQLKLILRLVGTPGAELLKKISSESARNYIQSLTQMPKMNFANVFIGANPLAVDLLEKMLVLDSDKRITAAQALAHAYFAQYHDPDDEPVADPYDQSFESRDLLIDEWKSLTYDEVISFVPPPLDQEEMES

As for `Cc1ccc(-n2nc(C(C)(C)C)cc2NC(=O)N[C@H]2CC[C@@H](Oc3ccc4nnc([C@@H]5CCCN5C)n4c3)c3ccccc32)cc1` [Example 5, 1-(5-tert-Butyl-2-p-tolyl-2H-pyrazol-3-yl)-3-[(1S,4R)-4-[3-((S)-1-methyl-pyrrolidin-2-yl)-[1,2,4]triazolo[4,3-a]pyridin-6-yloxy)-1,2,3,4-tetrahydro-naphthalen-1-yl]-urea], the IC50 (at p38alpha; in experiment [2]) was below 10 nM in each case. In experiment [1], the “BAL cell influx induced by TS” value is “significantly inhibited”.
On to `C[C@@H]1CCCCN1c1nnc2ccc(O[C@@H]3CC[C@H](NC(=O)Nc4cc(C(C)(C)C)nn4-c4cccc(OCCN(C)C)c4)c4ccccc43)cn12` [Example 123, 1-{5-tert-Butyl-2-[3-(2-dimethylamino-ethoxy)-phenyl]-2H-pyrazol-3-yl}-3-{(1S,4R)-4-[3-((R)-2-methyl-piperidin-1-yl)-[1,2,4]triazolo[4,3-a]pyridin-6-yloxy]-1,2,3,4-tetrahydro-naphthalen-1-yl}-urea partial formate salt], for which the IC50 (on p38alpha; in experiment [2]) was below 10 nM throughout.
For `C[C@@H]1CCC[C@H](C)N1c1nnc2ccc(O[C@@H]3CC[C@H](NC(=O)Nc4cc(C(C)(C)C)nn4-c4cnn(CCN5CCOCC5)c4)c4ccccc43)cn12` [Example 124, 1-[3-tert-Butyl-1′-(2-morpholin-4-yl-ethyl)-1′H-[1,4′]bipyrazolyl-5-yl]-3-((1S,4R)-4-[3-((2S,6R)-2,6-dimethyl-piperidin-1-yl)-[1,2,4]triazolo[4,3-a]pyridin-6-yloxy]-1,2,3,4-tetrahydro-naphthalen-1-yl)-urea formate salt], the IC50 (on p38alpha; in experiment [2]) was below 10 nM in each case.
With `C[C@@H]1CCC[C@H](C)N1c1nnc2ccc(O[C@@H]3CC[C@H](NC(=O)Nc4cc(C(C)(C)C)nn4-c4cnn(CCN(C)C)c4)c4ccccc43)cn12` [Example 125, 1-[3-tert-Butyl-1′-(2-dimethylamino-ethyl)-1′H-[1,4′]bipyrazolyl-5-yl]-3-{(1S,4R)-4-[3-((2S,6R)-2,6-dimethyl-piperidin-1-yl)-[1,2,4]triazolo[4,3-a]pyridin-6-yloxy]-1,2,3,4-tetrahydro-naphthalen-1-yl}-urea], the half-inhibitory concentration (IC50) (on p38alpha; in experiment [2]) was below 10 nM throughout.
For the compound `C[C@H]1CCCCN1c1nnc2ccc(O[C@@H]3CC[C@H](NC(=O)Nc4cc(C(C)(C)C)nn4C)c4ccccc43)cn12` [Example 126, 1-(5-tert-Butyl-2-methyl-2H-pyrazol-3-yl)-3-{(1S,4R)-4-[3-((S)-2-methyl-piperidin-1-yl)-[1,2,4]triazolo[4,3-a]pyridin-6-yloxy]-1,2,3,4-tetrahydronaphthalen-1-yl]-urea], the IC50 (at p38alpha; in experiment [2]) was below 10 nM throughout.
Regarding `C[C@H]1CCCCN1c1nnc2ccc(O[C@@H]3CC[C@H](NC(=O)Nc4cc(C(C)(C)C)nn4CCN(C)C)c4ccccc43)cn12` [Example 127, 1-[5-tert-Butyl-2-(2-dimethylamino-ethyl)-2H-pyrazol-3-yl]-3-{(1S,4R)-4-[3-((S)-2-methyl-piperidin-1-yl)-[1,2,4]triazolo[4,3-a]pyridin-6-yloxy]-1,2,3,4-tetrahydro-naphthalen-1-yl}-urea formate salt], the IC50 (at p38alpha; in experiment [2]) was below 10 nM each time.
As to `C[C@H]1CCCCN1c1nnc2ccc(O[C@@H]3CC[C@H](NC(=O)Nc4cc(C(C)(C)C)nn4CCN4CCCCC4)c4ccccc43)cn12` [Example 128, 1-[5-tert-Butyl-2-(2-piperidin-1-yl-ethyl)-2H-pyrazol-3-yl]-3-{(1S,4R)-4-[3-((S)-2-methyl-piperidin-1-yl)-[1,2,4]triazolo[4,3-a]pyridin-6-yloxy]-1,2,3,4-tetrahydro-naphthalen-1-yl}-urea formate salt], the IC50 (on p38alpha; in experiment [2]) was below 10 nM in each case.
Consider `C[C@H]1CCCCN1c1nnc2ccc(O[C@@H]3CC[C@H](NC(=O)Nc4cc(C(C)(C)C)nn4CCN4CCN(C)CC4)c4ccccc43)cn12` [Example 129, 1-{5-tert-Butyl-2-[2-(4-methyl-piperazin-1-yl)-ethyl]-2H-pyrazol-3-yl}-3-{(1S,4R)-4-[3-((S)-2-methyl-piperidin-1-yl)-[1,2,4]triazolo[4,3-a]pyridin-6-yloxy]-1,2,3,4-tetrahydro-naphthalen-1-yl}-urea formate salt], for which the figures for the IC50 (on p38alpha; in experiment [2]) were below 10 nM and 10 to 100 nM, respectively.
The matching figures for `C[C@@H]1CCC[C@H](C)N1c1nnc2ccc(O[C@@H]3CC[C@H](NC(=O)Nc4cc(C(C)(C)C)nn4-c4cccc(CN5CCOCC5)c4)c4ccccc43)cn12` [Example 130, 1-[5-tert-Butyl-2-(3-morpholin-4-ylmethyl-phenyl)-2H-pyrazol-3-yl]-3-{(1S,4R)-4-[3-((2S,6R)-2,6-dimethyl-piperidin-1-yl)-[1,2,4]triazolo[4,3-a]pyridin-6-yloxy]-1,2,3,4-tetrahydro-naphthalen-1-yl}-urea formate salt]: below 10 nM and below 10 nM.

What is called IC50 is the concentration at which inhibition is half-maximal.

The record behind these values is US9315503B2, “Kinase inhibitors” (CHIESI FARMACEUTICI S.p.A., priority 2011, dated 2016).
